Earlier results in publication PMC3170264 (Retrovirology, 2011).

Tested on: Y143 mutant HIV-1 integrase
Conditions: cited from earlier work

For `COc1cc2c(cc1Cc1cccc(Cl)c1F)c(=O)c(C(=O)O)cn2[C@H](CO)C(C)C` [elvitegravir], the “activity against Y143 mutant HIV-1 integrase” value is listed as “fully active”.
